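Results reflect a 48-hour exposure of cells in 96-well plates to compound at five concentrations. GI50 is the concentration that inhibits growth by half. TGI marks complete inhibition of growth.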

Drawing on PubChem BioAssay (NCI), this text covers GI50 and TGI for 13 compounds.

Common to all, as to test: growth of human tumour cells (NCI), 48 h
The test system of test [1] is MDA-MB-468 breast.
Test [2] deals with EKVX NSCLC.
Test [3] relates to COLO 205 colon.
In test [4] the test system is SF-295 CNS.
In test [5] the test system is KM12 colon.
Test [6] has as its system SK-MEL-5 melanoma.
In test [7] the test system is SW-620 colon.
For test [8], the system named is MDA-MB-435.
In test [9] the test system is SK-MEL-2 melanoma.
The subject of test [10] is OVCAR-3 ovarian.
Test [11] relates to SN12C renal.
The subject of test [12] is NCI-H460 lung.
Test [13] has as its system SR leukemia.
Test [14] relates to A498 renal.
In test [15] the test system is T-47D breast.
Test [16] has as its system MALME-3M melanoma.
The subject of test [17] is CCRF-CEM leukemia.
For test [18], the system named is OVCAR-5 ovarian.
Test [19] relates to HCT-116 colon.
Test [20] relates to TK-10 renal.
The subject of test [21] is DU-145 prostate.
The subject of test [22] is K-562 leukemia.
For test [23], the system named is NCI-H23 lung.
The subject of test [24] is HS 578T breast.
Test [25] has as its system HCT-15 colon.
In test [26] the test system is 786-0 renal.
The subject of test [27] is ACHN renal.
Test [28] relates to SK-MEL-28 melanoma.
In test [29] the test system is MCF7 breast.
In test [30] the test system is HT29 colon.
The subject of test [31] is NCI-H226 lung.
Test [32] relates to OVCAR-4 ovarian.
The subject of test [33] is M14 melanoma.
Test [34] has as its system RXF 393 renal.
For test [35], the system named is CAKI-1 renal.
For test [36], the system named is UACC-62 melanoma.
For test [37], the system named is A549 NSCLC.
Test [38] deals with MDA-MB-231 breast.
Test [39] relates to LOX IMVI melanoma.
Test [40] relates to OVCAR-8 ovarian.
For test [41], the system named is HL-60(TB) leukemia.
In test [42] the test system is MOLT-4 leukemia.
Test [43] relates to PC-3 prostate.
Test [44] has as its system SK-OV-3 ovarian.
Test [45] deals with RPMI-8226 leukemia.
For test [46], the system named is HCC-2998 colon.
The test system of test [47] is SF-539 CNS.
In test [48] the test system is SNB-19 CNS.
The subject of test [49] is U251 CNS.
The test system of test [50] is HOP-62 NSCLC.
In test [51] the test system is UO-31 renal.
Test [52] relates to BT-549 breast.
In test [53] the test system is SNB-75 CNS.
The test system of test [54] is IGROV1 ovarian.
The test system of test [55] is SF-268 CNS.

In the case of `O=C(c1ccccc1)c1ccc(O)c2ncccc12`, in test [1], the GI50 is 2.41 µM and the TGI turned out to be 7.75 µM.

Turning to `OCc1ncc(-c2ccccc2)s1`, in test [1], the GI50 was above 100 µM and the TGI was above 100 µM.

Turning to `CC(=O)OC1CC2(O)C(CCC3(C)C(c4ccc(=O)oc4)CCC32O)C2(C)CCC(OC3OC(CO)C(O)C(O)C3O)C=C12` (centres undefined), in [1], the GI50 was 0.0611 µM and the TGI is 0.338 µM.

`O=C1Nc2ccc(CN3CCOC3=O)cc2/C1=C/c1cc(CN2CCOCC2)c[nH]1`: in [1], the GI50 is 20.7 µM and the TGI stood at 73.3 µM.

For the compound `CC(=O)[O][Hg][CH2]C1(C)COC(C)([CH2][Hg][O]C(C)=O)CO1` (centres undefined), in [1], the GI50 is 1.97 µM and the TGI turned out to be 4.12 µM.

Regarding `Cc1ccc(NC(=O)N2CCCCC2)cc1[N+](=O)[O-]`, in [1], the GI50 was above 100 µM and the TGI was above 100 µM.

For `c1ccc2c(-c3cnn4cc(-c5ccc(N6CCNCC6)cc5)cnc34)ccnc2c1`, in test [1], the GI50 is 0.335 µM and the TGI was found to be 1.54 µM.

Take `CC1=C/C(O)CC(=O)Cc2nc(co2)C(=O)N2CCC=C2C(=O)OC(C(C)C)C(C)/C=C\C(=O)NC/C=C\1` (centres undefined): in [1], the GI50 is 11.4 µM and the TGI is 27.5 µM.

With `O=C(O)c1cc2cc(O)ccc2[nH]1`, in test [1], the GI50 is above 100 µM and the TGI is above 100 µM.

`C=C1C(=O)O[C@H]2[C@H]1CC/C(COC(=O)C(=O)c1c[nH]c3ccc(Cl)cc13)=C\CC[C@@]1(C)O[C@@H]21`: in test [1], the GI50 was 0.353 µM and the TGI is 1.06 µM.

Consider `CC1=C(C(=O)OCc2ccccc2)C(c2cccc3ccccc23)n2c(nc3ccccc32)N1` (centres undefined), for which the GI50 in test [2] is 4.8 µM; in test [3] it was 3.22 µM; in test [4], 3.04 µM; in test [5], 3.21 µM; in test [6], 3.37 µM; in test [7], 3.62 µM. Also, the GI50 is 1.86 µM in test [8]; 2.5 µM in test [9]; 2.65 µM in [10]; 5.08 µM in test [11]; 3.61 µM in test [12]; 2.4 µM in test [13]. The GI50 is above 100 µM in test [14]; 4.22 µM in test [15]; 3.84 µM in test [16]; 2.69 µM in test [17]; above 100 µM in test [18]; 3.19 µM in [19]. The GI50 was above 100 µM in [20]; 4.21 µM in [21]; 1.66 µM in test [22]; 32.6 µM in [23]; 2.69 µM in [24]; 3.61 µM in test [25]. Further, the GI50 was 4.68 µM in [26]; 4.66 µM in test [27]; above 100 µM in test [28]; 2.71 µM in test [29]; 2.53 µM in test [30]; 3.26 µM in test [31]. Further, the GI50 in [32] is 6.36 µM; in [33], 3.78 µM; in [34] it was 1.51 µM; in [35], 2.4 µM; in [36], 3.99 µM; in test [37], 5.21 µM. Further, the GI50 in [1] was 1.93 µM; in test [38] it was above 100 µM; in test [39], 5.7 µM; in test [40] it was 4.94 µM; in [41], 2.14 µM; in test [42] it was 2.71 µM. Also, the GI50 is 3.33 µM in test [43]; 3.97 µM in test [44]; 3.46 µM in test [45]; 7.58 µM in test [46]; 3.22 µM in test [47]; 5.8 µM in [48]. The GI50 in [49] is 3.49 µM; in test [50], 4.15 µM; in test [51], 4.64 µM; in test [52], 4.67 µM; in test [53], 1.39 µM; in test [54], 5.49 µM. Also, the GI50 in test [55] was 5.44 µM. The TGI in [2] was above 100 µM; in test [3] it was above 100 µM; in [4], above 100 µM; in [5], above 100 µM; in test [6], 21.7 µM; in test [7] it was above 100 µM. Besides, the TGI was 4.68 µM in test [8]; 7.66 µM in [9]; 7.58 µM in test [10]; above 100 µM in test [11]; above 100 µM in [12]; above 100 µM in test [13]. Further, the TGI in test [14], in test [15], in [16], in [17], in test [18] and in test [19] was above 100 µM each time. The TGI in test [20] is above 100 µM; in test [21], above 100 µM; in test [22], above 100 µM; in test [23], above 100 µM; in test [24], 8.82 µM; in test [25], above 100 µM. Also, the TGI in test [26] is above 100 µM; in test [27], above 100 µM; in test [28] it was above 100 µM; in test [29] it was above 100 µM; in test [30] it was 8.29 µM; in [31] it was above 100 µM. The TGI in [32] was above 100 µM; in test [33], above 100 µM; in test [34], 6.9 µM; in [35] it was above 100 µM; in test [36], above 100 µM; in [37], above 100 µM. The TGI in [1] is 7.26 µM; in test [38], above 100 µM; in test [39], above 100 µM; in test [40], above 100 µM; in [41], above 100 µM; in test [42], above 100 µM. Also, the TGI in test [43], in test [44], in test [45], in [46], in test [47] and in test [48] was above 100 µM each time. The TGI was above 100 µM in test [49]; above 100 µM in test [50]; above 100 µM in test [51]; above 100 µM in [52]; 4.91 µM in test [53]; above 100 µM in [54]. In [55], this compound gave a TGI above 100 µM.

`N=C1N=C(N)S/C1=C\c1ccc2ncccc2c1`: in test [1], the GI50 is above 25 µM and the TGI is above 25 µM.

For `Clc1ccc(-c2nc(C(Cl)Cl)nc3cc(-c4ccccc4)nn23)cc1`, in test [1], the GI50 is 0.772 µM and the TGI was 2.15 µM.
